ChEMBL document CHEMBL1135164, “New ketosteroids from the red alga Hypnea musciformis” (Bioorg Med Chem Lett, 2002)

Biological target: T1, Chymotrypsin-like elastase family member 2A (Sus scrofa) (UniProt P08419)
T1 sequence (whole entry): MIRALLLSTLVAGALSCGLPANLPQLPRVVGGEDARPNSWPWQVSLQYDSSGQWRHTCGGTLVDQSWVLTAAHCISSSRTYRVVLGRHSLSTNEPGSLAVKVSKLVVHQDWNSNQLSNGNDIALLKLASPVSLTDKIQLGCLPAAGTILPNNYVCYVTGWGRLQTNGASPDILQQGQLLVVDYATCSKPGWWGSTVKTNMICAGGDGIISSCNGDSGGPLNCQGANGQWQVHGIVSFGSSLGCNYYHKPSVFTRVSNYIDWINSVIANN
Assay: Effective dose for inhibition of the porcine Pancreatic elastase

ED50: 100 µM
Structure (SMILES): CC(C)C/C=C/[C@](C)(O)[C@H]1CC[C@H]2[C@@H]3CC(=O)[C@H]4CC(=O)CC[C@]4(C)[C@H]3CC[C@@]21C
